Like-named read-outs stand apart in the source and are kept apart here.
Experiment: Single dose PK in healthy subjects (Cohorts 1, 2, S1 and S2), plasma
Format: in vivo, human
Conditions: human, plasma, intravenous
Protocol: This study investigates (i) the safety and tolerability of Compound A (methyl (2R,3S)-3-((methylsulfonyl)amino)-2-(((cis-4-phenylcyclohexyl)oxy)methyl)piperidine-1-carboxylate) when a single dose given as a 9 hour continuous IV infusion is administered to healthy adults, healthy elderly subjects and patients with narcolepsy type 1 (NT1); (ii) the pharmacokinetics of Compound A when a single dose given as a 9 hour continuous IV infusion is administered to healthy adults, healthy elderly subjects and patients with narcolepsy type 1; and (iii) the pharmacodynamics (PD) effects of Compound A, primarily by evaluation of the sleep latency on MWT when a single dose given as a 9 hour continuous IV infusion is administered to patients with narcolepsy type 1.
Pharmacokinetics: Concentrations of Compound A in plasma, and CSF, and pharmacokinetics parameters.
On average, the time to reach the plateau appeared to be approximately 3 to 4 hours after the start of infusion. […] After switching off the IV infusion, Compound A plasma concentrations declined rapidly and in a biphasic manner with a mean terminal disposition phase t1/2z ranging approximately from 3.4 to 5.1 hours across all doses. […] Table 5 provides a summary of plasma concentrations of Compound A after a single IV infusion in healthy subjects. Table 6 provides a summary of pharmacokinetic parameters of Compound A after a single IV infusion in healthy subjects.

[1] = 28 mg, read-out: Plasma concentration, Minimum
[2] = 28 mg, read-out: Plasma concentration, Q1
[3] = 28 mg, read-out: Plasma concentration, Q3
[4] = 28 mg, read-out: Plasma concentration, Maximum
[5] = 28 mg, read-out: Plasma concentration, Mean
[6] = 28 mg, read-out: Plasma concentration, Median
[7] = 56 mg, read-out: Plasma concentration, Maximum
[8] = 56 mg, read-out: Plasma concentration, Mean
[9] = 56 mg, read-out: Plasma concentration, Median
[10] = 56 mg, read-out: Plasma concentration, Minimum
[11] = 56 mg, read-out: Plasma concentration, Q1
[12] = 56 mg, read-out: Plasma concentration, Q3
[13] = 112 mg, read-out: Plasma concentration, Maximum
[14] = 112 mg, read-out: Plasma concentration, Mean
[15] = 112 mg, read-out: Plasma concentration, Median
[16] = 112 mg, read-out: Plasma concentration, Minimum
[17] = 112 mg, read-out: Plasma concentration, Q1
[18] = 112 mg, read-out: Plasma concentration, Q3

For COC(=O)N1CCC[C@H](NS(C)(=O)=O)[C@@H]1CO[C@H]1CC[C@@H](c2ccccc2)CC1 [Compound A, methyl (2R,3S)-3-((methylsulfonyl)amino)-2-(((cis-4-phenylcyclohexyl)oxy)methyl)piperidine-1-carboxylate], the concentration at 2 hr [1] was 33.7 ng/mL, the concentration at 2 hr [2] was 45.5 ng/mL and the concentration at 2 h [3] was 57.8 ng/mL. For the same molecule, the concentration at 3 h [4] was 65.2 ng/mL, the concentration at 3 hr [5] was 55 ng/mL and the concentration at 3 h [6] was 59.3 ng/mL. The concentration at 3 hr [1] was 35.6 ng/mL, the concentration at 3 hr [2] was 51.3 ng/mL and the concentration at 3 h [3] was 63.7 ng/mL. The concentration at 4 hr [4] was 63.1 ng/mL, the concentration at 4 h [5] was 55 ng/mL and the concentration at 4 hr [6] was 54.5 ng/mL. The concentration at 4 hr [1] was 44.4 ng/mL, the concentration at 4 hr [2] was 54.2 ng/mL and the concentration at 4 hr [3] was 58.8 ng/mL. The concentration at 6 hr [4] was 51.7 ng/mL, the concentration at 6 hr [5] was 46.8 ng/mL and the concentration at 6 hr [6] was 48 ng/mL. The concentration at 6 hr [1] was 40.2 ng/mL, the concentration at 6 hr [2] was 45.4 ng/mL and the concentration at 6 hr [3] was 48.8 ng/mL. The concentration at 8 hr [4] was 58.8 ng/mL, the concentration at 8 hr [5] was 48.7 ng/mL and the concentration at 8 hr [6] was 51.7 ng/mL. For the same molecule, the concentration at 8 hr [1] was 37.1 ng/mL, the concentration at 8 hr [2] was 43.3 ng/mL and the concentration at 8 hr [3] was 52.5 ng/mL. For the same molecule, the concentration at 9 hr [4] was 58.3 ng/mL, the concentration at 9 hr [5] was 52.5 ng/mL and the concentration at 9 hr [6] was 55.3 ng/mL. For the same molecule, the concentration at 9 hr [1] was 40.6 ng/mL, the concentration at 9 hr [2] was 51 ng/mL and the concentration at 9 hr [3] was 57.4 ng/mL. For the same molecule, the concentration at 0.5 h [7] was 80.3 ng/mL, the concentration at 0.5 h [8] was 71.2 ng/mL and the concentration at 0.5 h [9] was 70.7 ng/mL. The concentration at 0.5 h [10] was 64.4 ng/mL, the concentration at 0.5 h [11] was 65 ng/mL and the concentration at 0.5 h [12] was 75.9 ng/mL. The concentration at 1 h [7] was 91.5 ng/mL, the concentration at 1 h [8] was 81.2 ng/mL and the concentration at 1 h [9] was 79 ng/mL. For the same molecule, the concentration at 1 h [10] was 74.8 ng/mL, the concentration at 1 h [11] was 76.2 ng/mL and the concentration at 1 h [12] was 86.3 ng/mL. The concentration at 1.5 h [7] was 116 ng/mL, the concentration at 1.5 h [8] was 92.8 ng/mL and the concentration at 1.5 h [9] was 90.2 ng/mL. For the same molecule, the concentration at 1.5 h [10] was 75.5 ng/mL, the concentration at 1.5 h [11] was 88.8 ng/mL and the concentration at 1.5 h [12] was 96.1 ng/mL. For the same molecule, the concentration at 2 h [7] was 114 ng/mL, the concentration at 2 h [8] was 99.5 ng/mL and the concentration at 2 h [9] was 99 ng/mL. For the same molecule, the concentration at 2 h [10] was 86.5 ng/mL, the concentration at 2 h [11] was 88.8 ng/mL and the concentration at 2 h [12] was 110 ng/mL. It also gave a concentration at 3 h [7] of 133 ng/mL, a concentration at 3 h [8] of 114 ng/mL and a concentration at 3 h [9] of 112 ng/mL. It also gave a concentration at 3 h [10] of 98.3 ng/mL, a concentration at 3 h [11] of 98.6 ng/mL and a concentration at 3 h [12] of 131 ng/mL. The concentration at 4 h [7] was 144 ng/mL, the concentration at 4 hr [8] was 118 ng/mL and the concentration at 4 h [9] was 113 ng/mL. It also gave a concentration at 4 hr [10] of 107 ng/mL, a concentration at 4 hr [11] of 109 ng/mL and a concentration at 4 h [12] of 120 ng/mL. The concentration at 6 h [7] was 119 ng/mL, the concentration at 6 hr [8] was 91.8 ng/mL and the concentration at 6 h [9] was 90.8 ng/mL. It also gave a concentration at 6 hr [10] of 73.5 ng/mL, a concentration at 6 h [11] of 73.8 ng/mL and a concentration at 6 h [12] of 103 ng/mL. For the same molecule, the concentration at 8 h [7] was 133 ng/mL, the concentration at 8 hr [8] was 102 ng/mL and the concentration at 8 h [9] was 99.7 ng/mL. For the same molecule, the concentration at 8 hr [10] was 84.9 ng/mL, the concentration at 8 h [11] was 87.2 ng/mL and the concentration at 8 h [12] was 108 ng/mL. It also gave a concentration at 9 h [7] of 138 ng/mL, a concentration at 9 hr [8] of 115 ng/mL and a concentration at 9 h [9] of 112 ng/mL. It also gave a concentration at 9 hr [10] of 102 ng/mL, a concentration at 9 h [11] of 104 ng/mL and a concentration at 9 h [12] of 122 ng/mL. For the same molecule, the concentration at 0.5 h [13] was 174 ng/mL, the concentration at 0.5 h [14] was 132 ng/mL and the concentration at 0.5 h [15] was 122 ng/mL. For the same molecule, the concentration at 0.5 h [16] was 108 ng/mL, the concentration at 0.5 h [17] was 119 ng/mL and the concentration at 0.5 h [18] was 149 ng/mL. It also gave a concentration at 1 h [13] of 172 ng/mL, a concentration at 1 h [14] of 154 ng/mL and a concentration at 1 h [15] of 162 ng/mL. It also gave a concentration at 1 h [16] of 126 ng/mL, a concentration at 1 h [17] of 131 ng/mL and a concentration at 1 h [18] of 169 ng/mL. The concentration at 1.5 h [13] was 255 ng/mL and the concentration at 1.5 h [14] was 194 ng/mL.
